{
  "source": "patent US12707888B2",
  "about": "“Asymmetric donor-acceptor molecular dyes” (THE UNIVERSITY OF NORTH CAROLINA AT CHARLOTTE, priority 2019, dated 2026)",
  "experiment": "UV-Vis absorbance, fluorescence emission and quantum yield in organic solvents",
  "format": "physicochemical",
  "experimental": "The absorption, emission, and fluorescence lifetime characteristics of all four TTz dyes were recorded in a variety of organic solvents (FIGS. 7A-7B, Table of FIG. 8). Additionally, HOMO/LUMO levels of the TTz dyes were determined computationally in Spartan 16 using B3LYP/6-31g. Molar absorptivities of all the TTz dyes ranged from 13,000 to 86,000 cm^−1M^−1. […] However, the peak absorbance of Bu2N-TTz-Py in DCM was slightly red-shifted as compared to that of Ph2N-TTz-Py (λmax, abs=429 nm vs λmax, abs=422 nm in DCM), which is attributed to the diphenylamine moiety having weaker donor characteristics. […] Due to the low estimated ground state dipole moments of the TTz dyes (μ=6-8 D), their wavelengths of absorbance remained relatively solvent independent (st. dev.=±11 nm).\n4-pyridine carboxaldehyde, 4-(dibutylamino)benzaldehyde, 4-(diphenylamino)benzaldehyde, terephthalaldehyde, dithiooxamide, and all solvents used for spectroscopic measurements were purchased from Sigma-Aldrich and used without further purification. ^1H and ^13CNMR measurements were obtained with either a JEOL 300 MHz NMR or a JEOL 500 MHz NMR. High resolution mass spectra were obtained using a Thermo Fisher Scientific MSQ Plus Single Quadrupole Mass Spectrometer. Solution-state UV-Vis spectra were collected on a Cary 300 UV-Vis spectrophotometer. Time-resolved measurements were taken on a Jobin Yvon-Spex Fluorolog equipped with a 389 nm diode laser for time-resolved PL decay measurements. Igor Pro 6.3 software was used to fit PL(t) decay data to single/multiple exponential decays. Quantum yields were calculated using 9,10-diphenylanthracene as a reference (quantum yield [ΦF] in cyclohexane=0.97).^40-41 Density functional theory (DFT) calculations were performed with Spartan computational software using B3LYP^42-43 density functional and 6-31G*^44 basis set. Temperature studies were conducted using a 10 μM Bu2N-TTz-Py MeTHF solution placed inside of a Norrell 502 NMR tube and sequentially submerged in the following liquid N2 baths:octanol (−16° C.), acetonitrile (−41° C.), acetone (−94° C.), pentane (−131° C.), MeTHF (−136° C.), and liquid N2 itself (−196° C.). The phosphorescence spectrum of Bu2N-TTz-Py (see S2) was collected similarly at −196° C. by pumping with 389 nm light while inside a liquid nitrogen bath and then probing the emission within 2 sec of removing from the bath. Human embryonic kidney cells (HEK 293T) were a kind gift from Prof. Bryan Dickinson, and Mouse macrophage J774A.1 cells were a kind gift from Prof. Deborah Nelson at the University of Chicago. Cells were cultured in Dulbecco's Modified Eagle's Medium (Invitrogen Corporation, USA) containing 10% heat inactivated Fetal Bovine Serum (FBS) (Invitrogen Corporation, USA), 100 U/mL penicillin, and 100 μg/mL streptomycin. Cells were maintained at 37° C. under 5% CO2.",
  "data": [
    {"compound": "CCCCN(CCCC)c1ccc(-c2nc3sc(-c4ccncc4)nc3s2)cc1", "note": "[Bu2N-TTz-Py, 2-(N,N-dibutyl-4-aminophenyl)-5-(4-pyridyl) thiazolo[5,4-d]thiazole]", "values": [
      {"measurement": "quantum yield ΦMeOH", "setting": "MeOH, reference 9,10-diphenylanthracene", "result": 0.04},
      {"measurement": "QY in aqueous environments", "setting": "aqueous environments", "result": "low QY"},
      {"measurement": "quantum yield Φhex", "setting": "hex, reference 9,10-diphenylanthracene", "result": 0.93},
      {"measurement": "peak absorbance λmax, abs", "setting": "in DCM", "result": 429, "unit": "nm"}
    ]}
  ]
}
